Test results from patent US20260174769A1, “MACROCYCLIC COMPOUNDS AND METHODS OF USE” (AMGEN INC., priority 2022, published 2026).
pIC50: −log10 of the molar value. Counter-ions that a name gives are not always drawn. Like-named read-outs stand apart in the source and are kept apart here.

Assays:
[1] = biological target: GDP-bound KRAS protein (aa 1-169), containing both G12D and C118A amino acid substitutions (Homo sapiens, UniProt P01116, C118A/G12D); assay: KRAS G12D Coupled Nucleotide Exchange Assay; assay type: biochemical
Protocol: KRAS G12D Coupled Nucleotide Exchange Assay
The assay plates were then read on a PerkinElmer En Vision Multilabel Reader, using AlphaScreen® technology, and data were analyzed using a 4-parameter logistic model to calculate IC50 values.

[2] = biological target: His-tagged KRAS G12D protein (Homo sapiens, UniProt P01116, G12D); assay: KRAS G12D TR-FRET Assay; assay type: binding
Protocol: The His-tagged KRAS G12D protein (Amgen) was diluted to 20 nM in Assay Buffer (20 mM HEPES, pH 7.4, 10 mM MgCl2, 50 mM NaCl, 0.1% BSA, 0.01% Tween-20, 10 μM GDP) and 2 μL was added to the appropriate wells of the 384-well plate. The plate was incubated for 30 minutes at room temperature. Biotinylated KRPep-2d substrate (Amgen) was diluted to 20 nM in Assay Buffer and 2 μL was added to all wells and incubated for 1 hour at room temperature. Detection Reagent (0.4 nM LANCE Eu-W1024 Anti-6×His (Perkin Elmer AD0401), 5 nM streptavidin-d2 (Cisbio 610SADLA)) was prepared in Assay Buffer, then 4 μL was added to the plate and incubated for 1 hour at room temperature.

[3] = tested on: Phosphorylation of ERK1/2 in AsPC-1 cells; assay: Phospho-ERK1/2 MSD Assay; assay type: cell-based, human; conditions: read-out: 2 h p-ERK (AsPC-1 cells), IC50
Protocol: Sixteen hours prior to compound treatment, AsPC-1 cells were seeded in 96-well cell culture plates at a density of 25,000 cells/well and incubated at 37° C., 5% CO2. A compound dose-response titration was diluted in growth media, added to appropriate wells of a cell culture plate, and then incubated at 37° C., 5% CO2 for 2 hours. […] Phosphorylation of ERK1/2 in compound-treated lysates was assayed using Phospho-ERK 1/2 Whole Cell Lysate kits (Meso Scale Discovery K151DWD) according to the manufacturer's protocol. Assay plates were read on a Meso Scale Discovery Sector Imager 6000, and data were analyzed using a 4-parameter logistic model to calculate IC50 values.

[4] = 2 hours compound pre-incubation, SOS-mediated nucleotide exchange
[5] = Homo sapiens, ASPC1, 2 h, AsPC-1 cells, 2 h compound treatment
[6] = read-out: KRAS G12D Binding IC50
[7] = TR-FRET, read-out: KRAS G12D Binding IC50

Compound	pIC50 [1, 4]	pIC50 ([2]; TR-FRET binding)	IC50 [1, 4] [nM]	pIC50 [2, 7]	also measured
Cc1cc2[nH]ncc2c2c1CCCCCCC1(O)CCCN(C1)c1nc(OC[C@@]34CCCN3C[C@H](F)C4)nc3c(F)c-2ncc13 (mixture of isomers) [Example 44]	6.58	6.80			
O=C1CCCCc2c(Cl)cc3[nH]ncc3c2-c2ncc3c(nc(OC[C@@]45CCCN4C[C@H](F)C5)nc3c2F)N2CCC3CCN1[C@H]3C2 (mixture of isomers) [Example 60]	8.22	7.89			pIC50 [3, 5]: 7.92
O=C1CCCc2c(Cl)cc3[nH]ncc3c2-c2ncc3c(nc(OC[C@@]45CCCN4C[C@H](F)C5)nc3c2F)N2CCCC(CC1)C2 (mixture of isomers) [Example 236]	7.72	7.26			pIC50 [3, 5]: 6.02
O[C@@H]1C[C@H]2COCCCCc3c(Cl)cc4[nH]ncc4c3-c3ncc4c(nc(OC[C@@]56CCCN5C[C@H](F)C6)nc4c3F)N(C1)C2 (mixture of isomers) [Example 408, 2,2,2-trifluoroacetate salt]					pIC50 [3]: 7.28; pIC50 [1]: 7.74; pIC50 [2, 6]: 7.62
O=C1N[C@@H]2C[C@H](O)CN(C2)c2nc(OC[C@@]34CCCN3C[C@H](F)C4)nc3c(F)c(ncc23)-c2c(c(Cl)cc3[nH]ncc23)CCCO1 (single isomer, unassigned) [Example 284]		8.30	2		
CN1C(=O)OCCCc2c(Cl)cc3[nH]ncc3c2-c2ncc3c(nc(OC[C@@]45CCCN4C[C@H](F)C5)nc3c2F)N2C[C@H](O)C[C@H]1C2 (single isomer, unassigned) [Example 287]		5.91	376		
O=C1OCCc2c(Cl)cc3[nH]ncc3c2-c2ncc3c(nc(OC[C@@]45CCCN4C[C@H](F)C5)nc3c2F)N2CCC[C@@]3(C[C@H](CO3)O1)C2 (single isomer, unassigned) [Example 314]		7.68	11		
O=C1OCCc2c(Cl)cc3[nH]ncc3c2-c2ncc3c(nc(OC[C@@]45CCCN4C[C@H](F)C5)nc3c2F)N2CCC[C@]3(C[C@@H](CO3)O1)C2 (single isomer, unassigned) [Example 315]		8.52	2		
CC12COCCN(C1)c1nc(OC[C@@]34CCCN3C[C@H](F)C4)nc3cc(nnc13)-c1c(c(Cl)cc3[nH]ncc13)CCCOC(=O)O2 (single isomer, unassigned) [Example 362]		8.10	5		
CC12COCCN(C1)c1nc(OC[C@@]34CCCN3C[C@H](F)C4)nc3cc(nnc13)-c1c(c(Cl)cc3[nH]ncc13)CCCOC(=O)O2 (single isomer, unassigned) [Example 363]		4.69	5630		
Fc1c2ncc3c(nc(OC[C@@]45CCCN4C[C@H](F)C5)nc13)N1CCO[C@@H](COCC[C@@H]3C[C@@H]3c3c(Cl)cc4[nH]ncc4c3-2)C1 (single isomer, unassigned) [Example 392]				8.22	
Fc1c2ncc3c(nc(OC[C@@]45CCCN4C[C@H](F)C5)nc13)N1CCO[C@@H](COCC[C@H]3C[C@H]3c3c(Cl)cc4[nH]ncc4c3-2)C1 (single isomer, unassigned) [Example 393]				5.74	
Fc1c2ncc3c(nc(OC[C@@]45CCCN4C[C@H](F)C5)nc13)N1CCCC[C@](F)(COCCCCc3c(Cl)cc4[nH]ncc4c3-2)C1 (single isomer, unassigned) [Example 398]				8.40	
Fc1c2ncc3c(nc(OC[C@@]45CCCN4C[C@H](F)C5)nc13)N1CCCC[C@@](F)(COCCCCc3c(Cl)cc4[nH]ncc4c3-2)C1 (single isomer, unassigned) [Example 399]				8.40	
O=C1CCCCc2c(Cl)cc3[nH]ncc3c2-c2ncc3c(nc(OC[C@@]45CCCN4C[C@H](F)C5)nc3c2F)N2CC[C@@H]3[C@H](C2)N1CC3(F)F (single isomer, unassigned) [Example 403]				8.52	
O[C@@H]1C[C@@H]2COCCCCc3c(Cl)cc4[nH]ncc4c3-c3ncc4c(nc(OC[C@@]56CCCN5C[C@H](F)C6)nc4c3F)N(C1)C2 (single isomer, unassigned) [Example 406]				7.68	
O[C@H]1C[C@H]2COCCCCc3c(Cl)cc4[nH]ncc4c3-c3ncc4c(nc(OC[C@@]56CCCN5C[C@H](F)C6)nc4c3F)N(C1)C2 (single isomer, unassigned) [Example 407]				8.22	
Cc1cc2[nH]ncc2c2c1CCCCC(=O)O[C@@H]1CCCN(C1)c1nc(OC[C@@]34CCCN3C[C@H](F)C4)nc3c(F)c-2ncc13 [Example 31, (17R)-30-Fluoro-24-(((2R,7aS)-2-fluorotetrahydro-1H-pyrrolo[1,2-a]pyrrol-7a(5H)-yl)methoxy)-9-methyl-16-oxa-5,6,21,23,25,29-hexaazahexacyclo[24.3.1.1˜17,21˜.0˜2,10˜.0˜3,7˜.0˜22,27˜]hentriaconta-1(30),2,4,7,9,22,24,26,28-nonaen-15-one bis(2,2,2-trifluoroacetate)]					pIC50 [1]: 8.30; pIC50 [2, 6]: 8.15
Cc1cc2[nH]ncc2c2c1CCCn1ncc(n1)C1CCCN(C1)c1nc(OC[C@@]34CCCN3C[C@H](F)C4)nc3c(F)c-2ncc13 (stereo partly drawn) [Example 158, 31-Fluoro-25-(((2R,7aS)-2-fluorotetrahydro-1H-pyrrolo[1,2-a]pyrrol-7a(5H)-yl)methoxy)-9-methyl-5,6,14,15,22,24,26,30,33-nonaazaheptacyclo[25.3.1.1˜14,17˜.1˜18,22˜.0˜2,10˜.0˜3,7˜.0˜23,28˜]tritriaconta-1(31),2,4,7,9,15,17(33),23,25,27,29-undecaene]					pIC50 [3, 5]: 6.56
O=C1OCCCc2c(Cl)cc3[nH]ncc3c2-c2ncc3c(nc(OC[C@H]4CC[C@@H]5COCCN54)nc3c2F)N2CCOC[C@H](C2)O1 [Example 185, (26S)-18-chloro-32-fluoro-4-((6R,8aR)-hexahydro-1H-pyrrolo[2,1-c][1,4]oxazin-6-ylmethoxy)-23,25,28-trioxa-1,3,5,9,14,15-hexaazahexacyclo[24.4.1.1~6,10~.0~2,7~.0~11,19~.0~12,16~]dotriaconta-2,4,6,8,10(32),11,13,16,18-nonaen-24-one]		8.22	5		
O=C1OCCc2c(Cl)cc3[nH]ncc3c2-c2ncc3c(nc(OC[C@@]45CCCN4C[C@H](F)C5)nc3c2F)N2CCC[C@]3(C2)C[C@H](C3)O1 [Example 333, (1R,3S)-10-chloro-32-fluoro-24-(((2R,7aS)-2-fluorotetrahydro-1H-pyrrolo[1,2-a]pyrrol-7a(5H)-yl)methoxy)-4,6-dioxa-13,14,19,23,25,27-hexaazaheptacyclo[25.3.1.1~1,3~.1~18,22~.0~9,17~.0~12,16~.0~21,26~]tritriaconta-9,11,14,16,18(32),19,21,23,25-nonaen-5-one]		6.50	127		
CN(C)CC1(COc2nc3c4cnc(c(F)c4n2)-c2c(c(Cl)cc4[nH]ncc24)CCOC(=O)O[C@H]2C[C@]4(CCCN3C4)C2)CC1 [Example 334, (1S,3R)-10-chloro-24-((1-((dimethylamino)methyl)cyclopropyl)methoxy)-32-fluoro-4,6-dioxa-13,14,19,23,25,27-hexaazaheptacyclo[25.3.1.1~1,3~.1~18,22~.0~9,17~.0~12,16~.0~21,26~]tritriaconta-9,11,14,16,18(32),19,21,23,25-nonaen-5-one]		8.70			pIC50 [3, 5]: 8.10
O=C1OCCCc2c(Cl)cc3[nH]ncc3c2-c2ncc3c(nc(OC[C@@]45CCCN4C[C@H](F)C5)nc3c2F)N2CCCC[C@@](CF)(C2)O1 [Example 339, (26S)-18-chloro-32-fluoro-26-(fluoromethyl)-4-(((2R,7aS)-2-fluorotetrahyrdo-1H-pyrrolo[1,2-a]pyrrol-7a(5H)-yl)methoxy)-23,25-dioxa-1,3,5,9,14,15-hexaazahexacyclo[24.4.1.1~6,10~.0~2,7~.0~11,19~.0~12,16~]dotriaconta-2,4,6,8,10(32),11,13,16,18-nonaen-24-one]					pIC50 ([3]; AsPC-1 cells, 2 h compound treatment): 6.08
(17R,18R)-9-chloro-31-fluoro-25-(((2R,7aS)-2-fluorotetrahydro-1H-pyrrolo[1,2-α]pyrrol-7a(5H)-yl)methoxy)-19,33-dioxa-5,6,15,22,24,26,30-heptaazaheptacyclo[25.3.1.1~13,16~.1~18,22~.0~2,10~.0~3,7~.0~23,28~]tritriaconta-1(31),2,4,7,9,13,15,23,25,27,29-undecaen-17-ol [Example 395]	6.70			5.93	
